Test results taken from the NIST ThermoML archive (doi:10.1016/j.fluid.2018.09.024).
± gives the expanded uncertainty stated by the source.

test: activity coefficient (dimensionless); of the first substance listed, at infinite dilution; xn = mol fraction of the nth substance listed; conditions: 368.15 K; 101.33 kPa; Liquid; Chromatography; x1 = 0

Structure (SMILES)	activity coefficient
Cc1ccccc1C [1,2-dimethylbenzene] + CCCCCCCCCCCC[N+](C)(C)CCOc1ccccc1.N#C[N-]C#N	1.4 ± 0.09
Cc1ccccc1C [1,2-dimethylbenzene] + CCCCCCCCCCCC[N+](C)(C)CCOc1ccccc1.O=S(=O)([N-]S(=O)(=O)C(F)(F)F)C(F)(F)F	1.01 ± 0.06
Cc1cccc(C)c1 [1,3-dimethylbenzene] + CCCCCCCCCCCC[N+](C)(C)CCOc1ccccc1.N#C[N-]C#N	1.61 ± 0.11
Cc1cccc(C)c1 [1,3-dimethylbenzene] + CCCCCCCCCCCC[N+](C)(C)CCOc1ccccc1.O=S(=O)([N-]S(=O)(=O)C(F)(F)F)C(F)(F)F	1.12 ± 0.07
Cc1ccc(C)cc1 [1,4-dimethylbenzene] + CCCCCCCCCCCC[N+](C)(C)CCOc1ccccc1.N#C[N-]C#N	1.63 ± 0.11
Cc1ccc(C)cc1 [1,4-dimethylbenzene] + CCCCCCCCCCCC[N+](C)(C)CCOc1ccccc1.O=S(=O)([N-]S(=O)(=O)C(F)(F)F)C(F)(F)F	1.14 ± 0.07
C1COCCO1 [1,4-dioxane] + CCCCCCCCCCCC[N+](C)(C)CCOc1ccccc1.N#C[N-]C#N	0.871 ± 0.056
C1COCCO1 [1,4-dioxane] + CCCCCCCCCCCC[N+](C)(C)CCOc1ccccc1.O=S(=O)([N-]S(=O)(=O)C(F)(F)F)C(F)(F)F	0.619 ± 0.043
C=CCCCCCCCC [1-decene] + CCCCCCCCCCCC[N+](C)(C)CCOc1ccccc1.N#C[N-]C#N	7.14 ± 0.49
C=CCCCCCCCC [1-decene] + CCCCCCCCCCCC[N+](C)(C)CCOc1ccccc1.O=S(=O)([N-]S(=O)(=O)C(F)(F)F)C(F)(F)F	4.63 ± 0.32
C=CCCCCC [1-heptene] + CCCCCCCCCCCC[N+](C)(C)CCOc1ccccc1.N#C[N-]C#N	4.51 ± 0.31
C=CCCCCC [1-heptene] + CCCCCCCCCCCC[N+](C)(C)CCOc1ccccc1.O=S(=O)([N-]S(=O)(=O)C(F)(F)F)C(F)(F)F	2.92 ± 0.2
C#CCCCCC [1-heptyne] + CCCCCCCCCCCC[N+](C)(C)CCOc1ccccc1.N#C[N-]C#N	2.3 ± 0.16
C#CCCCCC [1-heptyne] + CCCCCCCCCCCC[N+](C)(C)CCOc1ccccc1.O=S(=O)([N-]S(=O)(=O)C(F)(F)F)C(F)(F)F	1.83 ± 0.12
C#CCCCC [1-hexyne] + CCCCCCCCCCCC[N+](C)(C)CCOc1ccccc1.N#C[N-]C#N	1.95 ± 0.13
C#CCCCC [1-hexyne] + CCCCCCCCCCCC[N+](C)(C)CCOc1ccccc1.O=S(=O)([N-]S(=O)(=O)C(F)(F)F)C(F)(F)F	1.57 ± 0.1
CCC[N+](=O)[O-] [1-nitropropane] + CCCCCCCCCCCC[N+](C)(C)CCOc1ccccc1.N#C[N-]C#N	0.903 ± 0.057
CCC[N+](=O)[O-] [1-nitropropane] + CCCCCCCCCCCC[N+](C)(C)CCOc1ccccc1.O=S(=O)([N-]S(=O)(=O)C(F)(F)F)C(F)(F)F	0.837 ± 0.054
C#CCCCCCC [1-octyne] + CCCCCCCCCCCC[N+](C)(C)CCOc1ccccc1.N#C[N-]C#N	2.68 ± 0.18
C#CCCCCCC [1-octyne] + CCCCCCCCCCCC[N+](C)(C)CCOc1ccccc1.O=S(=O)([N-]S(=O)(=O)C(F)(F)F)C(F)(F)F	2.12 ± 0.14
C=CCCC [1-pentene] + CCCCCCCCCCCC[N+](C)(C)CCOc1ccccc1.N#C[N-]C#N	3.54 ± 0.24
C=CCCC [1-pentene] + CCCCCCCCCCCC[N+](C)(C)CCOc1ccccc1.O=S(=O)([N-]S(=O)(=O)C(F)(F)F)C(F)(F)F	2.08 ± 0.14
C#CCCC [1-pentyne] + CCCCCCCCCCCC[N+](C)(C)CCOc1ccccc1.N#C[N-]C#N	1.73 ± 0.12
C#CCCC [1-pentyne] + CCCCCCCCCCCC[N+](C)(C)CCOc1ccccc1.O=S(=O)([N-]S(=O)(=O)C(F)(F)F)C(F)(F)F	1.39 ± 0.09
CC(C)CC(C)(C)C [2,2,4-trimethylpentane] + CCCCCCCCCCCC[N+](C)(C)CCOc1ccccc1.N#C[N-]C#N	7.39 ± 0.5
CC(C)CC(C)(C)C [2,2,4-trimethylpentane] + CCCCCCCCCCCC[N+](C)(C)CCOc1ccccc1.O=S(=O)([N-]S(=O)(=O)C(F)(F)F)C(F)(F)F	3.9 ± 0.27
CCC(C)(C)C [2,2-dimethylbutane] + CCCCCCCCCCCC[N+](C)(C)CCOc1ccccc1.N#C[N-]C#N	6.25 ± 0.43
CCC(C)(C)C [2,2-dimethylbutane] + CCCCCCCCCCCC[N+](C)(C)CCOc1ccccc1.O=S(=O)([N-]S(=O)(=O)C(F)(F)F)C(F)(F)F	3.24 ± 0.22
CCOC(C)(C)C [2-ethoxy-2-methylpropane] + CCCCCCCCCCCC[N+](C)(C)CCOc1ccccc1.N#C[N-]C#N	3.97 ± 0.27
CCOC(C)(C)C [2-ethoxy-2-methylpropane] + CCCCCCCCCCCC[N+](C)(C)CCOc1ccccc1.O=S(=O)([N-]S(=O)(=O)C(F)(F)F)C(F)(F)F	2.16 ± 0.15

same assay, conditions: 378.15 K; 101.33 kPa; Liquid; Chromatography; x1 = 0

Structure (SMILES)	activity coefficient
Cc1ccccc1C [1,2-dimethylbenzene] + CCCCCCCCCCCC[N+](C)(C)CCOc1ccccc1.N#C[N-]C#N	1.43 ± 0.09
Cc1cccc(C)c1 [1,3-dimethylbenzene] + CCCCCCCCCCCC[N+](C)(C)CCOc1ccccc1.N#C[N-]C#N	1.66 ± 0.11
Cc1ccc(C)cc1 [1,4-dimethylbenzene] + CCCCCCCCCCCC[N+](C)(C)CCOc1ccccc1.N#C[N-]C#N	1.69 ± 0.11
C1COCCO1 [1,4-dioxane] + CCCCCCCCCCCC[N+](C)(C)CCOc1ccccc1.N#C[N-]C#N	0.898 ± 0.057
C=CCCCCCCCC [1-decene] + CCCCCCCCCCCC[N+](C)(C)CCOc1ccccc1.N#C[N-]C#N	7.22 ± 0.49
C=CCCCCC [1-heptene] + CCCCCCCCCCCC[N+](C)(C)CCOc1ccccc1.N#C[N-]C#N	4.59 ± 0.31
C#CCCCCC [1-heptyne] + CCCCCCCCCCCC[N+](C)(C)CCOc1ccccc1.N#C[N-]C#N	2.4 ± 0.16
C#CCCCC [1-hexyne] + CCCCCCCCCCCC[N+](C)(C)CCOc1ccccc1.N#C[N-]C#N	2.02 ± 0.14
CCC[N+](=O)[O-] [1-nitropropane] + CCCCCCCCCCCC[N+](C)(C)CCOc1ccccc1.N#C[N-]C#N	0.92 ± 0.058
C#CCCCCCC [1-octyne] + CCCCCCCCCCCC[N+](C)(C)CCOc1ccccc1.N#C[N-]C#N	2.8 ± 0.19
C=CCCC [1-pentene] + CCCCCCCCCCCC[N+](C)(C)CCOc1ccccc1.N#C[N-]C#N	3.61 ± 0.25
C#CCCC [1-pentyne] + CCCCCCCCCCCC[N+](C)(C)CCOc1ccccc1.N#C[N-]C#N	1.79 ± 0.12
CC(C)CC(C)(C)C [2,2,4-trimethylpentane] + CCCCCCCCCCCC[N+](C)(C)CCOc1ccccc1.N#C[N-]C#N	7.47 ± 0.51
CCC(C)(C)C [2,2-dimethylbutane] + CCCCCCCCCCCC[N+](C)(C)CCOc1ccccc1.N#C[N-]C#N	6.35 ± 0.43
CCOC(C)(C)C [2-ethoxy-2-methylpropane] + CCCCCCCCCCCC[N+](C)(C)CCOc1ccccc1.N#C[N-]C#N	4.03 ± 0.27
